Species: Rattus norvegicus
Experiment: DrugMatrix - Regimen: Daily Repeat
Type: toxicity, organism-based, Sprague-Dawley
Design: regimen Daily Repeat, gender Male, age 6-8 weeks
Details: in vivo, po, route oral GAVAGE, vehicle 100 % WATER; for ABSOLUTE BASOPHIL / ABSOLUTE EOSINOPHIL / ABSOLUTE LYMPHOCYTE / ABSOLUTE MONOCYTE / ABSOLUTE SEGMENTED NEUTROPHIL / BASOPHIL / EOSINOPHIL / ERYTHROCYTE COUNT / HEMATOCRIT / HEMOGLOBIN / LEUKOCYTE COUNT / LYMPHOCYTE / MEAN CORPUSCULAR HEMOGLOBIN / MEAN CORPUSCULAR HEMOGLOBIN CONCENTRATION / MEAN CORPUSCULAR VOLUME / MONOCYTE / NEUTROPHIL / NUCLEATED RED BLOOD CELLS / PLATELET COUNT: tissue Blood; for ALANINE AMINOTRANSFERASE / ALBUMIN / ALKALINE PHOSPHATASE / ASPARTATE AMINOTRANSFERASE / BLOOD UREA NITROGEN / CARBON DIOXIDE / CHLORIDE / CHOLESTEROL / CREATINE PHOSPHOKINASE / CREATININE / GLUCOSE / LACTATE DEHYDROGENASE / LIPASE / PHOSPHORUS / POTASSIUM / SODIUM / TOTAL BILIRUBIN / TOTAL PROTEIN / URIC ACID: tissue Plasma
[1] = 0 mg/kg, 72 h, dose level Control, time 3 day
[2] = 0 mg/kg, 120 h, dose level Control, time 5 day
[3] = 11 mg/kg, 72 h, dose level Low, time 3 day

## CN(C)C(=O)Oc1cccc([N+](C)(C)C)c1.[Br-] [NEOSTIGMINE BROMIDE]
[1]
  ABSOLUTE BASOPHIL: 0 CELLS/uL
  ABSOLUTE EOSINOPHIL: 32.5 CELLS/uL
  ABSOLUTE LYMPHOCYTE: 9305.83 CELLS/uL
  ABSOLUTE MONOCYTE: 43.83 CELLS/uL
  ABSOLUTE SEGMENTED NEUTROPHIL: 817.83 CELLS/uL
  BASOPHIL: 0%
  EOSINOPHIL: 0.33%
  ERYTHROCYTE COUNT: 5.38 x10E6/uL
  HEMATOCRIT: 33.63%
  HEMOGLOBIN: 13.17 G/DL
  LEUKOCYTE COUNT: 10.2 x10E3/uL
  LYMPHOCYTE: 91.17%
  MEAN CORPUSCULAR HEMOGLOBIN: 24.5 pg
  MEAN CORPUSCULAR HEMOGLOBIN CONCENTRATION: 39.13 G/DL
  MEAN CORPUSCULAR VOLUME: 62.53 fL
  MONOCYTE: 0.5%
  NEUTROPHIL: 8%
  NUCLEATED RED BLOOD CELLS: 0.17 /100WBC
  PLATELET COUNT: 858 x10E3/uL
  ALANINE AMINOTRANSFERASE: 55.67 u/L
  ALBUMIN: 4.07 G/DL
  ALKALINE PHOSPHATASE: 337 u/L
  ASPARTATE AMINOTRANSFERASE: 84 u/L
  BLOOD UREA NITROGEN: 13.17 mg/dL
  CARBON DIOXIDE: 34.17 mmol/L
  CHLORIDE: 99.33 MEQ/L
  CHOLESTEROL: 78.83 mg/dL
  CREATINE PHOSPHOKINASE: 576.83 u/L
  CREATININE: 0.17 mg/dL
  GLUCOSE: 152.67 mg/dL
  LACTATE DEHYDROGENASE: 147.83 u/L
  LIPASE: 9.5 u/L
  PHOSPHORUS: 10.78 mg/dL
  POTASSIUM: 6.34 MEQ/L
  SODIUM: 144.12 MEQ/L
  TOTAL BILIRUBIN: 0.18 mg/dL
  TOTAL PROTEIN: 6.08 G/DL
  URIC ACID: 0.65 mg/dL
[2]
  ABSOLUTE BASOPHIL: 0 CELLS/uL
  ABSOLUTE EOSINOPHIL: 31.17 CELLS/uL
  ABSOLUTE LYMPHOCYTE: 7918.33 CELLS/uL
  ABSOLUTE MONOCYTE: 58.33 CELLS/uL
  ABSOLUTE SEGMENTED NEUTROPHIL: 725.5 CELLS/uL
  BASOPHIL: 0%
  EOSINOPHIL: 0.33%
  ERYTHROCYTE COUNT: 5.32 x10E6/uL
  HEMATOCRIT: 33.53%
  HEMOGLOBIN: 13.17 G/DL
  LEUKOCYTE COUNT: 8.73 x10E3/uL
  LYMPHOCYTE: 90.33%
  MEAN CORPUSCULAR HEMOGLOBIN: 24.82 pg
  MEAN CORPUSCULAR HEMOGLOBIN CONCENTRATION: 39.33 G/DL
  MEAN CORPUSCULAR VOLUME: 63.12 fL
  MONOCYTE: 0.67%
  NEUTROPHIL: 8.67%
  NUCLEATED RED BLOOD CELLS: 0 /100WBC
  PLATELET COUNT: 1144.83 x10E3/uL
  ALANINE AMINOTRANSFERASE: 60.5 u/L
  ALBUMIN: 3.97 G/DL
  ALKALINE PHOSPHATASE: 343.17 u/L
  ASPARTATE AMINOTRANSFERASE: 80.83 u/L
  BLOOD UREA NITROGEN: 15 mg/dL
  CARBON DIOXIDE: 31 mmol/L
  CHLORIDE: 99.75 MEQ/L
  CHOLESTEROL: 71.5 mg/dL
  CREATINE PHOSPHOKINASE: 237.17 u/L
  CREATININE: 0.17 mg/dL
  GLUCOSE: 137 mg/dL
  LACTATE DEHYDROGENASE: 146.17 u/L
  LIPASE: 11.5 u/L
  PHOSPHORUS: 10.13 mg/dL
  POTASSIUM: 6 MEQ/L
  SODIUM: 145 MEQ/L
  TOTAL BILIRUBIN: 0.13 mg/dL
  TOTAL PROTEIN: 5.82 G/DL
  URIC ACID: 0.62 mg/dL
[3]
  ABSOLUTE BASOPHIL: 0 CELLS/uL
  ABSOLUTE EOSINOPHIL: 0 CELLS/uL
  ABSOLUTE LYMPHOCYTE: 8155 CELLS/uL
  ABSOLUTE MONOCYTE: 60.33 CELLS/uL
  ABSOLUTE SEGMENTED NEUTROPHIL: 851.33 CELLS/uL
  BASOPHIL: 0%
  EOSINOPHIL: 0%
  ERYTHROCYTE COUNT: 5.22 x10E6/uL
  HEMATOCRIT: 32.5%
  HEMOGLOBIN: 12.8 G/DL
  LEUKOCYTE COUNT: 9.07 x10E3/uL
  LYMPHOCYTE: 90%
  MEAN CORPUSCULAR HEMOGLOBIN: 24.53 pg
  MEAN CORPUSCULAR HEMOGLOBIN CONCENTRATION: 39.4 G/DL
  MEAN CORPUSCULAR VOLUME: 62.3 fL
  MONOCYTE: 0.67%
  NEUTROPHIL: 9.33%
  NUCLEATED RED BLOOD CELLS: 0 /100WBC
  PLATELET COUNT: 925.67 x10E3/uL
  ALANINE AMINOTRANSFERASE: 55.67 u/L
  ALBUMIN: 3.93 G/DL
  ALKALINE PHOSPHATASE: 332.67 u/L
  ASPARTATE AMINOTRANSFERASE: 81.67 u/L
  BLOOD UREA NITROGEN: 13.67 mg/dL
  CARBON DIOXIDE: 34.33 mmol/L
  CHLORIDE: 98.67 MEQ/L
  CHOLESTEROL: 82.67 mg/dL
  CREATINE PHOSPHOKINASE: 214.67 u/L
  CREATININE: 0.14 mg/dL
  GLUCOSE: 150.67 mg/dL
  LACTATE DEHYDROGENASE: 142.33 u/L
  LIPASE: 9.33 u/L
  PHOSPHORUS: 10.87 mg/dL
  POTASSIUM: 5.64 MEQ/L
  SODIUM: 144.73 MEQ/L
  TOTAL BILIRUBIN: 0.17 mg/dL
  TOTAL PROTEIN: 5.97 G/DL
  URIC ACID: 0.47 mg/dL
